According to patent US9170257B2 (priority 2012, dated 2015):
Where two headings read alike, the source gives them in different places.

Experiment: Tissue distribution of curcumin and THC at necropsy 15 minutes post-infusion
Set-up: species or system Beagle dogs
Conditions: for Plasma concentration used to calculate Kp: average of end of infusion and 15 minutes post infusion; for concentration at 15 min / Kp at 2 h / Kp at 8 h: both sexes, dog, in vivo, 10 mg/kg; for Kp at 2 h: 2 hr infusion; for Kp at 2 h / Kp at 8 h: H3PO4 stabilized; for Kp at 8 h: 8 hr infusion
Protocol: The test article will be administered to 8 Beagle dogs by intravenous infusion over two hours (Part A) or eight hours (Part B) as shown in Table 6.
Multiple samples of tissue weighing approximately 1 gram were removed and snap frozen in the presence or absence of phosphoric acid (H3PO4). For all tissue samples, the levels of curcumin and THC were determined using a method developed by the Bioanalytical Department at Nucro-Technics. […] Values that were below the limit of quantification were assigned a value of 0. […] Tissue distribution data was analyzed using, unless stated, the data from 4 dogs and are presented as the mean±standard error (S.E.).

[1] = beagle, read-out: Kp [tissue]/[plasma], Brain Stem
[2] = beagle, read-out: Kp [tissue]/[plasma], Cortex, Brain
[3] = beagle, read-out: Kp [tissue]/[plasma], Hippocampus
[4] = beagle, read-out: Kp [tissue]/[plasma], Kidney
[5] = beagle, read-out: Kp [tissue]/[plasma], Liver
[6] = beagle, read-out: Kp [tissue]/[plasma], Lungs
[7] = beagle, read-out: Kp [tissue]/[plasma], Muscle
[8] = beagle, read-out: Kp [tissue]/[plasma], Pancreas

COc1cc(CCC(=O)CC(=O)CCc2ccc(O)c(OC)c2)ccc1O [THC, tetrahydrocurcumin]
Tissue level, Liver (2 hour infusion, Plus H3PO4): 0.45 ng/g
Tissue level, Lungs (2 hour infusion, Plus H3PO4): 2.14 ng/g
Plasma concentration used to calculate Kp (2 hours infusion): 810.9 ng/mL
Tissue level, Lungs (8 hour infusion, Plus H3PO4): 6.36 ng/g
Plasma concentration used to calculate Kp (8 hours infusion): 104.5 ng/mL
concentration at 15 min (Beagle, 2 hour infusion, No H3PO4, read-out: Tissue level, Brain Stem): 2.34 ng/g
concentration at 15 min (beagle, 2 hour infusion, No H3PO4, read-out: Tissue level, Cortex, Brain): 0.68 ng/g
concentration at 15 min (beagle, 2 hour infusion, No H3PO4, read-out: Tissue level, Heart): 2.51 ng/g
concentration at 15 min (beagle, 2 hour infusion, No H3PO4, read-out: Tissue level, Hippocampus): 0.75 ng/g
concentration at 15 min (beagle, 2 hour infusion, No H3PO4, read-out: Tissue level, Kidney): 3.06 ng/g
concentration at 15 min (beagle, 2 hour infusion, No H3PO4, read-out: Tissue level, Liver): 1.9 ng/g
concentration at 15 min (beagle, 2 hour infusion, No H3PO4, read-out: Tissue level, Lungs): 25 ng/g
concentration at 15 min (beagle, 2 hour infusion, No H3PO4, read-out: Tissue level, Muscle): 5.26 ng/g
concentration at 15 min (beagle, 2 hour infusion, No H3PO4, read-out: Tissue level, Pancreas): 2.02 ng/g
concentration at 15 min (beagle, 2 hour infusion, No H3PO4, read-out: Tissue level, Striatum): 6.22 ng/g
concentration at 15 min (beagle, 2 hour infusion, No H3PO4, read-out: Tissue level, Urinary Bladder): 0.84 ng/g
concentration at 15 min (beagle, 2 hour infusion, Plus H3PO4, read-out: Tissue level, Brain Stem): 10.6 ng/g
concentration at 15 min (beagle, 2 hour infusion, Plus H3PO4, read-out: Tissue level, Cortex, Brain): 3.08 ng/g
concentration at 15 min (beagle, 2 hour infusion, Plus H3PO4, read-out: Tissue level, Heart): 0.69 ng/g
concentration at 15 min (beagle, 2 hour infusion, Plus H3PO4, read-out: Tissue level, Hippocampus): 6.46 ng/g
concentration at 15 min (beagle, 2 hour infusion, Plus H3PO4, read-out: Tissue level, Kidney): 4.25 ng/g
concentration at 15 min (beagle, 2 hour infusion, Plus H3PO4, read-out: Tissue level, Muscle): 4.19 ng/g
concentration at 15 min (beagle, 2 hour infusion, Plus H3PO4, read-out: Tissue level, Pancreas): 0.92 ng/g
concentration at 15 min (beagle, 2 hour infusion, Plus H3PO4, read-out: Tissue level, Striatum): 11.1 ng/g
concentration at 15 min (beagle, 2 hour infusion, Plus H3PO4, read-out: Tissue level, Urinary Bladder): 0.87 ng/g
Kp at 2 h [1]: 0.0037
Kp at 2 h [2]: 0.0006
Kp at 2 h [3]: 0.0014
Kp at 2 h [4]: 0.0025
Kp at 2 h [5]: 0.0028
Kp at 2 h [6]: 0.0078
Kp at 2 h [7]: 0.0011
Kp at 2 h [8]: 0.0017
Kp at 2 h (beagle, read-out: Kp [tissue]/[plasma], Striatum): 0.0039
Kp at 2 h (beagle, read-out: Kp [tissue]/[plasma], Urinary Bladder): 0.0014
concentration at 15 min (beagle, 8 hour infusion, No H3PO4, read-out: Tissue level, Brain Stem): 0.83 ng/g
concentration at 15 min (beagle, 8 hour infusion, No H3PO4, read-out: Tissue level, Cortex, Brain): 0.06 ng/g
concentration at 15 min (beagle, 8 hour infusion, No H3PO4, read-out: Tissue level, Heart): 0.51 ng/g
concentration at 15 min (beagle, 8 hour infusion, No H3PO4, read-out: Tissue level, Hippocampus): 0.01 ng/g
concentration at 15 min (beagle, 8 hour infusion, No H3PO4, read-out: Tissue level, Kidney): 1.32 ng/g
concentration at 15 min (beagle, 8 hour infusion, No H3PO4, read-out: Tissue level, Liver): 2.63 ng/g
concentration at 15 min (beagle, 8 hour infusion, No H3PO4, read-out: Tissue level, Lungs): 10.8 ng/g
concentration at 15 min (beagle, 8 hour infusion, No H3PO4, read-out: Tissue level, Muscle): 0.38 ng/g
concentration at 15 min (beagle, 8 hour infusion, No H3PO4, read-out: Tissue level, Pancreas): 0.34 ng/g
concentration at 15 min (beagle, 8 hour infusion, No H3PO4, read-out: Tissue level, Striatum): 1.12 ng/g
concentration at 15 min (beagle, 8 hour infusion, No H3PO4, read-out: Tissue level, Urinary Bladder): 1.37 ng/g
concentration at 15 min (beagle, 8 hour infusion, Plus H3PO4, read-out: Tissue level, Brain Stem): 3.02 ng/g
concentration at 15 min (beagle, 8 hour infusion, Plus H3PO4, read-out: Tissue level, Cortex, Brain): 0.49 ng/g
concentration at 15 min (beagle, 8 hour infusion, Plus H3PO4, read-out: Tissue level, Heart): 0.03 ng/g
concentration at 15 min (beagle, 8 hour infusion, Plus H3PO4, read-out: Tissue level, Hippocampus): 1.13 ng/g
concentration at 15 min (beagle, 8 hour infusion, Plus H3PO4, read-out: Tissue level, Kidney): 2.04 ng/g
concentration at 15 min (beagle, 8 hour infusion, Plus H3PO4, read-out: Tissue level, Liver): 2.25 ng/g
concentration at 15 min (beagle, 8 hour infusion, Plus H3PO4, read-out: Tissue level, Muscle): 0.93 ng/g
concentration at 15 min (beagle, 8 hour infusion, Plus H3PO4, read-out: Tissue level, Pancreas): 1.34 ng/g
concentration at 15 min (beagle, 8 hour infusion, Plus H3PO4, read-out: Tissue level, Striatum): 3.14 ng/g
concentration at 15 min (beagle, 8 hour infusion, Plus H3PO4, read-out: Tissue level, Urinary Bladder): 1.11 ng/g
Kp at 8 h [1]: 0.0289
Kp at 8 h [2]: 0.0047
Kp at 8 h (beagle, read-out: Kp [tissue]/[plasma], Heart): 0.0003
Kp at 8 h [3]: 0.0108
Kp at 8 h [4]: 0.0195
Kp at 8 h [5]: 0.0215
Kp at 8 h [6]: 0.0609
Kp at 8 h [7]: 0.0089
Kp at 8 h [8]: 0.0128
